The term Kd denotes the concentration at which binding is half-saturated. As a reminder, the IC50 is the concentration at which inhibition is half-maximal.

The source of these data is paper PMC9828099, “Aromatic disulfides as potential inhibitors against interaction between deaminase APOBEC3G and HIV infectivity factor” (Acta Biochimica et Biophysica Sinica, 2022).

One assay concerns HIV-1. The note with it: MT4 and MAGI cells; cited from earlier work.
Assay [1] deals with full-length APOBEC3G (A3G-FL) (UniProt Q9HC16). Kind of assay: SPR.
A further assay deals with T1, A3G-sNTD (Homo sapiens, UniProt Q9HC16).
T1 sequence (Q9HC16 1-196): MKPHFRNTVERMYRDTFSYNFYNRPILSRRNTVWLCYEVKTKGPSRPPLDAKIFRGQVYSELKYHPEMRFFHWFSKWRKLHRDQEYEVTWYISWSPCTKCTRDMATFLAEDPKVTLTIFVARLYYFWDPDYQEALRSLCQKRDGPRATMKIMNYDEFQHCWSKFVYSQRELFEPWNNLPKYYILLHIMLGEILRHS
Kind of assay: SPR binding of small molecules to A3G-sNTD. The settings on record: read-out: KD, binding affinity to A3G-sNTD. The procedure:
(§1) Small molecules in the concentration of 500 μM were injected at 30 μL/min. The contact time is 100 s and dissociation time is 120 s. The chip was regenerated by glycine (pH 1.5) at a flow rate of 30 μL/min (30 s contact time). Then small molecules with high RU were selected to perform the 2 ^nd round screening. […] The data analyses were performed by BIAcore Evaluation.

The target in another assay is T2, rVif (Human immunodeficiency virus type 1 group M subtype B, UniProt P12504).
T2 construct: The cDNAs of full-length Vif (residues 1–192) was sub-cloned into the vector pET28a; made in house
It counts as binding, HIV-1. The note with it: SPR 1st round screening, small molecules at 500 μM. The procedure: as §1

A further assay concerns Vif. The settings on record: fluorescent intensity of 293T cells; read-out: IC50, inhibition of Vif activity; cited from earlier work.
In assay [2] the test system is interaction between A3G and Vif. More on the design: method as in PMID 25724652. The settings on record: read-out: IC50, block of interaction between A3G and Vif; cited from earlier work.

T2 sequence (P12504 whole entry, the tested form may be a part): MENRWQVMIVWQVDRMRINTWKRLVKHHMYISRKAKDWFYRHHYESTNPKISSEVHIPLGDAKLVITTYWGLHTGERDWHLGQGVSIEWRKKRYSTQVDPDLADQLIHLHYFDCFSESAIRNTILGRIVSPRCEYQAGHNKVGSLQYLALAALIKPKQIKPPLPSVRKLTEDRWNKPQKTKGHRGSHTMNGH

For the compound `O=C(O)Cn1c2c(c3c1=C(c1ccc(O)c(O)c1)C(=O)c1cc(O)c(OS(=O)(=O)O)cc1-3)-c1cc(O)c(O)cc1C(=O)C=2c1ccc(O)c(O)c1` [Baculiferin M], in the assay with HIV-1, the “IC50, HIV-1 replication” value is 0.5 to 7 µg/mL. Take `O=C(O)Cn1c2c(c3c1=C(c1ccc(O)c(O)c1)C(=O)c1cc(O)c(O)cc1-3)-c1cc(O)c(O)cc1C(=O)C=2c1ccc(O)c(O)c1` [Baculiferin L]: the “IC50, HIV-1 replication” value in the assay with HIV-1 was 0.5 to 7 µg/mL. Consider “Vif-CBFβ-ELOB-ELOC (VCBC) complex (from UniProt P12504;Q13951;Q15370;Q15369)”, for which the Kd in assay [1] turned out to be 0.00071 µM. Turning to `CCCCn1c(SCc2c(C)noc2C)nc2cc(S(N)(=O)=O)ccc21` [MM-2], the Kd at A3G-sNTD came to 19.9 ± 11 µM. Moreover, the “relative response value of binding to rVif” value on rVif is 130.4 RU. Consider `COc1ccccc1NC(=O)c1ccccc1Sc1ccc([N+](=O)[O-])cc1` [RN-18], for which the IC50 in the assay on Vif is 4.5 µM. As for `C/C(=C/C(=O)c1cccnc1)Nc1ccc(O)cc1` [N.41], in assay [2], the IC50 was 2.18 µM.
